The values below come from patent US20200260724A1, “METHODS TO FORMULATE NEUTRAL ORGANIC COMPOUNDS WITH POLYMER NANOPARTICLES” (Vive Crop Protection Inc., priority 2010, published 2020).

A short description of series [1]: Viscosity of solutions and dispersions in cP. As to conditions: temperature printed per sample, 23.1-26.0° C. The series is classed as physicochemical. As to the method:
Solid 2,4-dichlorophenoxyacetic acid (2,4-D) (0.158 g, 0.72 mmol) and fresh deionized water (50 mL) were added to a 100 mL glass beaker, along with a stir bar. The medium was connected to a pH meter and the reading was at 2.76. To the stirring dispersion, aqueous NaOH (10N) was added dropwise. As the pH increased, more solid 2,4-D dissolved the dispersion became more transparent. Eventually, all of the solid 2,4-D dissolved completely, and the solution appeared transparent. The pH and viscosity of the solution was measured at 10.76 and 0.93 cP at 25.4° C. For the reference, the viscosity of pure water was measured using the same instrument and shown a value of 0.92 cP at 26.4° C.

A short description of series [2]: Pyrene fluorescent probe of nanoparticle microenvironment (I1/I3 ratio). Format: physicochemical. Conditions: pyrene emission, excitation 340 nm.
Source text: The intensity ratio of the first and third vibronic bands (I1/I3) in the emission spectra of the pyrene monomer is very sensitive to the monomer's microenvironment, and can be used as a metric to gauge the hydrophobic nature of different polymer nanoparticles produced using the methods described in this patent.
The pyrene microenvironments from different polymer nanoparticles were probed for the following nanoparticles: Na^+-collapsed polyacrylic acid (Na-PAA), ZnO/polyacrylic nanoparticles (ZnO-PAA), Zn^2+-collapsed nanoparticles (Zn-PAA), Na^+-collapsed PMAA nanoparticles (Na-PMAA), Na^+-collapsed P(MAA-co-EA) nanoparticles (Na—P(MAA-EA), poly(vinyl pyrollidone)-collapsed polyacrylic acid nanoparticles (PVP/PAA). Aqueous pyrene-nanoparticle solutions were prepared as follows. 1.0 mg pyrene was dissolved in 10 mL discholormethane and was used as the stock pyrene solution (0.1 mg/mL). To prepare the aqueous pyrene-nanoparticle solutions, 10 micro liters of the stock pyrene solution was added to a 20 mL scintillation vial and was allowed to air dry in a fume hood for one hour. 80 mg of solid nanoparticles or polymer, 10 g of deionized water and a magnetic stir bar were then added to the vial. […] Emission spectra were measured on a Perkin Elmer LS 55 Luminescence Spectrometer using an excitation wavelength of 340 nm, having slit widths for both excitation and emission at 2.5 nm. […]

As to `O=C(O)COc1ccc(Cl)cc1Cl` [2,4-D, 2,4-dichlorophenoxyacetic acid], the “Viscosity of solution or nanoparticle dispersion” value in series [1] amounted to 0.93 cP.
As to `c1cc2ccc3cccc4ccc(c1)c2c34` [Pyrene - control, pyrene], the I1/I3 ratio in series [2] (pH 6-8) worked out at 1.68; in series [2] (pH 8-10), 1.70.
